Details: after i.m. administration of the suspension
Experimental: There were 3 animals in each group. […] The whole blood was centrifuged to collect plasma, which was transferred to a 96-well plate, and stored at −20° C. for detection by LC-MS/MS. The drug concentration at each sampling time was determined by measuring the standard curve of reference donepezil in plasma.

## CCCCCCC(=O)OC1=C(CC2CCN(Cc3ccccc3)CC2)Cc2cc(OC)c(OC)cc21 [donepezil heptanoate, Donepezil Heptanoate]
  Metabolism of the prodrug into donepezil after administration: rapidly metabolized into donepezil

Source: patent US20210275443A1, “SUSTAINED-RELEASE INJECTION PREPARATION CONTAINING DONEPEZIL DERIVATIVE” (NANJING NORATECH PHARMACEUTICAL CO., LTD., priority 2018, published 2021)
